Test results from US9340559B2, “Proteasome inhibitor delanzomib for use in the treatment of lupus” (Cephalon, Inc., priority 2011, dated 2016).

How the values were obtained:
Type in all cases: in vivo, mouse
[1] = test system: MRL/lpr mice; test: Splenomegaly (spleen mass), MRL/lpr mice
Procedure: FIG. 5 depicts splenomegaly for MRL/lpr mice across treatment groups for the study duration. MRL/lpr mice were treated as outlined in the legend. The spleen masses for all mice that survived until the end of the experiment are graphed. Each symbol represents the spleen weight for one mouse at 25 weeks of age.
Mice are tracked on an individual basis.
Vehicle alone is provided orally twice weekly (p.o.). Both proteasome inhibitors are suspended in the vehicle solution. […] In addition, urine proteinuria is determined for all animals.
Vehicle was 3% DMSO/10% Solutol/87% PBS.

[2] = test system: MRL/lpr mice; test: Urinalysis: total urine protein (proteinuria), MRL/lpr mice
Procedure: Urine samples are acid precipitated for total protein recovery and analysis. Samples for which enough urine remained are used for Uristix® leukouria analysis. Briefly, a standard protein solution is prepared from normal mouse sera and is used as a standard for mouse urinary protein assay by turbidity. Standard preparation is as follows: 0, 5, 10, 15, 20, 30, 40, and 50 μL of a 4 mg/mL mouse sera standard protein solution as provided in the kit are added in duplicate into two columns. PBS is added to individual wells to adjust the final volume to 50 μL. For urine sample preparation, urine samples are centrifuged at 9880×g for 3 minutes using a tabletop micro-centrifuge. Urine supernatant (1-50 μL) is added in duplicate. PBS is added to adjust the volume to 50 μL total. For the turbidity assay: 25 μL of 0.1 N HCl is added into blank columns and 250 μL of 3% sulfosalicyclic acid into the test columns. The microplate is incubated for 10 minutes at RT and plates are read using an ELISA reader with single beam at 450 nm. For the Uristix® strip assay, strips are laid out and labeled. Twenty microliters of urine are placed onto each test strip square and incubated for at least 30 seconds before the result is recorded. For all total urine analysis plate-based assays, values below the limit of detection set by the lowest point along the standard or set by the manufacturer are considered out of range and are not estimated, but assumed the lowest point along the standard curve for that particular assay.

[3] = test system: NZM mice; test: Survival, NZM lupus nephritis model, ip dosing (Example 2)
[4] = test system: NZM mice; test: Splenomegaly (spleen mass), NZM mice (Example 2)
[5] = test system: NZM mice; test: Urinalysis: total urine protein (proteinuria), NZM mice (Example 2)
[6] = test system: NZM mice; test: Renal histopathology scoring (kidney IC-GN), NZM mice (Example 2)
Procedure: For histological analyses, the left kidney from each animal is removed and fixed in 10% buffered neutral formalin (EMD) for 48 hours on an orbital rocker at 25° C., then washed overnight with running dH2O and stored in 70% ethanol at 4° C. until ready to be processed. Kidney stains used for histological analyses included hematoxylin and eosin (H&E), Periodic Acid Schiff (PAS) and Trichrome stains (Wistar Institute, Philadelphia, Pa.). All 3 stained sections are used by the pathologist for scoring purposes. All histological scoring is performed blinded and by an independent board certified veterinary medical pathologist (Julie Engiles, VMD, DACVP). Multiple stains are used to determine score values. Images in FIG. 39 show worst affected area of section selected blindly by the pathologist.
Kidney IC-GN Scoring Method (Smith, Dong et al. 2007):
1. Glomerular cellularity—Score 1-5: Null, low, moderate, high, severe
2. Glomerular necrosis—Score 1-5: Null, low, moderate, high, severe
3. Glomerulosclerosis—Score 1-5: Null, low, moderate, high, severe
4. Interstitial infiltration—Score 1-5: Null, low, moderate, high, severe
5. Tubular atrophy—Score 1-5: Null, low, moderate, high, severe
6. Interstitial fibrosis—Score 1-5: Null, low, moderate, high, severe
7. Vasculitis—Score 1-5: Null, low, moderate, high, severe
Specific Pathologist Definitions: • Necrosis is defined by the presence of nuclear debris/pyknosis within the glomerular tuft indicative of “necrosis.” In many samples, this is a very mild, rare finding within only a very few segments of the glomerular tuft. Also consider effacement of the glomerular tuft by PAS positive, Trichrome negative material necrosis. • Glomerular sclerosis is defined by increased fibroplasia or fibrosis within the glomerular tuft or capsule. […] Most of the vascular changes are mild and could be considered “arteriosclerosis” characterized by proliferation of the smooth muscle cells, and hyalinization of the extracellular matrix. This change may reflect hypertension secondary to glomerular pathology. In very few animals is there overt “vasculitis.” Most inflammatory changes are within the walls of the blood vessels, with little to no damage to the endothelium, and no overt hemorrhage/fibrin leakage. Many also have perivascular rims of fibroblasts.

[7] = COMPOUND A once and twice weekly

Structure (SMILES): CC(C)C[C@H](NC(=O)[C@@H](NC(=O)c1cccc(-c2ccccc2)n1)[C@@H](C)O)B(O)O [COMPOUND A, [(1R)-1-[[(2S,3R)-3-hydroxy-2-[6-phenyl-pyridine-2-carbonyl)amino]-1-oxobutyl]amino]-3-methylbutylboronic acid]
- splenomegaly decrease vs vehicle at the end of the study ([1]; 3 mg/kg iv twice weekly): 74%
- EOS spleen mass, percent change vs vehicle ([1]; G1: 3 mg/kg iv, 1× wk): −67%
- EOS spleen mass, percent change vs vehicle ([1]; G2: 3 mg/kg iv, 2× wk): −74%
- EOS spleen mass, percent change vs vehicle ([1]; G3: 10 mg/kg po, 2× wk): −56%
- Urine AUC proteinuria, percent change vs vehicle ([2]; G1: 3 mg/kg iv, 1× wk): −60%
- Urine AUC proteinuria, percent change vs vehicle ([2]; G2: 3 mg/kg iv, 2× wk): −70%
- Urine AUC proteinuria, percent change vs vehicle ([2]; G3: 10 mg/kg po, 2× wk): −71%
- total urine protein reduction relative to vehicle ([2]; Group 1): 60%
- total urine protein reduction relative to vehicle ([2]; Group 2): 70%
- total urine protein reduction relative to vehicle ([2]; Group 3): 71%
- animals remaining at the end of the study (day 310) ([3]; COMPOUND A treatment groups, vehicle 45%): 100%
- EOS survival, percent live mice from original number ([3]; G1 3 mg/kg ip, 1× wk): 100%
- survival increase relative to vehicle ([3]; G1: 3 mg/kg ip once per week): 55%
- EOS survival, percent live mice from original number ([3]; G2 3 mg/kg ip, 2× wk): 91%
- survival increase relative to vehicle ([3]; G2: 3 mg/kg ip twice weekly): 46%
- mice still alive at day 56 ([3]; both treatment groups of the substance): 100%
- Spleen mass EOS, percent change vs vehicle ([4]; G1 3 mg/kg ip, 1× wk): −37%
- splenomegaly decrease vs vehicle at EOS ([4]; G1: 3 mg/kg ip once per week): 37%
- Spleen mass EOS, percent change vs vehicle ([4]; G2 3 mg/kg ip, 2× wk): −34%
- splenomegaly decrease vs vehicle at EOS ([4]; G2: 3 mg/kg ip twice weekly): 34%
- spleen mass compared to once-a-week bortezomib ([4]; p<0.05): reduced spleen mass significantly
- Urine proteinuria AUC, percent change vs vehicle ([5]; G1 3 mg/kg ip, 1× wk): −61%
- Urine proteinuria AUC, percent change vs vehicle ([5]; G2 3 mg/kg ip, 2× wk): −72%
- proteinuria reduction compared to vehicle ([5]; Group 1: 3 mg/kg ip once per week): 61%
- proteinuria reduction compared to vehicle ([5]; Group 2: 3 mg/kg ip twice weekly): 72%
- p, glomerular cellularity (GC) vs G3 Bortezomib 0.3 mg/kg 1× wk ([6]; 3 mg/kg 1× wk): p < 0.01
- p, glomerular cellularity (GC) vs G6 DEX 1.5 mg/kg 1× wk ([6]; 3 mg/kg 1× wk): p < 0.01
- p, glomerular cellularity (GC) vs G7 Vehicle ([6]; 3 mg/kg 1× wk): p < 0.001
- p, glomerular necrosis (GN) vs G3 Bortezomib 0.3 mg/kg 1× wk ([6]; 3 mg/kg 1× wk): p < 0.05
- p, glomerular necrosis (GN) vs G6 DEX 1.5 mg/kg 1× wk ([6]; 3 mg/kg 1× wk): p < 0.01
- p, glomerulosclerosis (GS) vs G3 Bortezomib 0.3 mg/kg 1× wk ([6]; 3 mg/kg 1× wk): p < 0.001
- p, glomerulosclerosis (GS) vs G6 DEX 1.5 mg/kg 1× wk ([6]; 3 mg/kg 1× wk): p < 0.001
- p, glomerulosclerosis (GS) vs G7 Vehicle ([6]; 3 mg/kg 1× wk): p < 0.01
- p, interstitial fibrosis (IF) vs G3 Bortezomib 0.3 mg/kg 1× wk ([6]; 3 mg/kg 1× wk): p < 0.01
- p, interstitial fibrosis (IF) vs G6 DEX 1.5 mg/kg 1× wk ([6]; 3 mg/kg 1× wk): p < 0.001
- p, interstitial fibrosis (IF) vs G7 Vehicle ([6]; 3 mg/kg 1× wk): p < 0.01
- p, interstitial infiltration (II) vs G6 DEX 1.5 mg/kg 1× wk ([6]; 3 mg/kg 1× wk): p < 0.01
- p, interstitial infiltration (II) vs G7 Vehicle ([6]; 3 mg/kg 1× wk): p < 0.05
- p, tubular atrophy (TA) vs G3 Bortezomib 0.3 mg/kg 1× wk ([6]; 3 mg/kg 1× wk): p < 0.001
- p, tubular atrophy (TA) vs G6 DEX 1.5 mg/kg 1× wk ([6]; 3 mg/kg 1× wk): p < 0.001
- p, tubular atrophy (TA) vs G7 Vehicle ([6]; 3 mg/kg 1× wk): p < 0.001
- p, vasculitis (VA) vs G6 DEX 1.5 mg/kg 1× wk ([6]; 3 mg/kg 1× wk): p < 0.01
- p, vasculitis (VA) vs G7 Vehicle ([6]; 3 mg/kg 1× wk): p < 0.01
- p, glomerular cellularity (GC) vs G3 Bortezomib 0.3 mg/kg 1× wk ([6]; 3 mg/kg 2× wk): p < 0.01
- p, glomerular cellularity (GC) vs G6 DEX 1.5 mg/kg 1× wk ([6]; 3 mg/kg 2× wk): p < 0.01
- p, glomerular cellularity (GC) vs G7 Vehicle ([6]; 3 mg/kg 2× wk): p < 0.001
- p, glomerular necrosis (GN) vs G3 Bortezomib 0.3 mg/kg 1× wk ([6]; 3 mg/kg 2× wk): p < 0.05
- p, glomerular necrosis (GN) vs G6 DEX 1.5 mg/kg 1× wk ([6]; 3 mg/kg 2× wk): p < 0.01
- p, glomerulosclerosis (GS) vs G3 Bortezomib 0.3 mg/kg 1× wk ([6]; 3 mg/kg 2× wk): p < 0.001
- p, glomerulosclerosis (GS) vs G6 DEX 1.5 mg/kg 1× wk ([6]; 3 mg/kg 2× wk): p < 0.001
- p, glomerulosclerosis (GS) vs G7 Vehicle ([6]; 3 mg/kg 2× wk): p < 0.01
- p, interstitial fibrosis (IF) vs G3 Bortezomib 0.3 mg/kg 1× wk ([6]; 3 mg/kg 2× wk): p < 0.01
- p, interstitial fibrosis (IF) vs G6 DEX 1.5 mg/kg 1× wk ([6]; 3 mg/kg 2× wk): p < 0.001
- p, interstitial fibrosis (IF) vs G7 Vehicle ([6]; 3 mg/kg 2× wk): p < 0.01
- p, interstitial infiltration (II) vs G6 DEX 1.5 mg/kg 1× wk ([6]; 3 mg/kg 2× wk): p < 0.01
- p, interstitial infiltration (II) vs G7 Vehicle ([6]; 3 mg/kg 2× wk): p < 0.05
- p, tubular atrophy (TA) vs G3 Bortezomib 0.3 mg/kg 1× wk ([6]; 3 mg/kg 2× wk): p < 0.01
- p, tubular atrophy (TA) vs G6 DEX 1.5 mg/kg 1× wk ([6]; 3 mg/kg 2× wk): p < 0.001
- p, tubular atrophy (TA) vs G7 Vehicle ([6]; 3 mg/kg 2× wk): p < 0.001
- p, vasculitis (VA) vs G7 Vehicle ([6]; 3 mg/kg 2× wk): p < 0.05
- glomerular cellularity reduction vs vehicle [6, 7]: ~50%
- glomerulosclerosis reduction vs vehicle [6, 7]: ~53%
- interstitial fibrosis reduction vs vehicle [6, 7]: ~55%
- interstitial infiltration reduction vs vehicle [6, 7]: 43-46%
- tubular atrophy reduction vs vehicle [6, 7]: 55-59%
- vasculitis reduction vs vehicle [6, 7]: 51-55%
- Kidney glomerular cellularity, percent change vs vehicle ([6]; G1 3 mg/kg ip, 1× wk): −48%
- Kidney glomerular necrosis, percent change vs vehicle ([6]; G1 3 mg/kg ip, 1× wk): −29%
- Kidney glomerulosclerosis, percent change vs vehicle ([6]; G1 3 mg/kg ip, 1× wk): −54%
- Kidney interstitial fibrosis, percent change vs vehicle ([6]; G1 3 mg/kg ip, 1× wk): −56%
- Kidney interstitial infiltration, percent change vs vehicle ([6]; G1 3 mg/kg ip, 1× wk): −46%
- Kidney tubular atrophy, percent change vs vehicle ([6]; G1 3 mg/kg ip, 1× wk): −59%
- Kidney vasculitis, percent change vs vehicle ([6]; G1 3 mg/kg ip, 1× wk): −55%
- Kidney glomerular cellularity, percent change vs vehicle ([6]; G2 3 mg/kg ip, 2× wk): −50%
- Kidney glomerular necrosis, percent change vs vehicle ([6]; G2 3 mg/kg ip, 2× wk): −29%
- Kidney glomerulosclerosis, percent change vs vehicle ([6]; G2 3 mg/kg ip, 2× wk): −53%
- Kidney interstitial fibrosis, percent change vs vehicle ([6]; G2 3 mg/kg ip, 2× wk): −55%
- Kidney interstitial infiltration, percent change vs vehicle ([6]; G2 3 mg/kg ip, 2× wk): −43%
- Kidney tubular atrophy, percent change vs vehicle ([6]; G2 3 mg/kg ip, 2× wk): −55%
- Kidney vasculitis, percent change vs vehicle ([6]; G2 3 mg/kg ip, 2× wk): −51%
- decrease in renal histopathology score over several parameters vs vehicle ([6]; mouse, in vivo): 45-55%
